# Test results taken from patent publication US10238670B2, “9-aminomethyl minocycline compounds and methods of use thereof in urinary tract infection (UTI) treatment” (Paratek Pharmaceuticals, Inc., priority 2016, dated 2019).
# Assays:
# Assay in all cases: In vitro MIC, 2010 surveillance isolates
# [1] = tested on: E. cloacae CeftazR; assay type: cell-based
# [2] = tested on: E. coli ESBL−; assay type: cell-based, Escherichia coli
# [3] = tested on: K. oxytoca; assay type: cell-based
# [4] = tested on: A. baumanii; assay type: cell-based
# [5] = tested on: E. coli ESBL+; assay type: cell-based, Escherichia coli
# [6] = tested on: K. pneumoniae ESBL+; assay type: cell-based, Klebsiella pneumoniae
# [7] = tested on: K. pneumoniae ESBL−; assay type: cell-based, Klebsiella pneumoniae
# [8] = tested on: E. cloacae CeftazS; assay type: cell-based; set-up: MIC90: unit: µg/mL
# [9] = tested on: Acinetobacter spp; assay type: cell-based
# [10] = tested on: Enterobacter spp; assay type: cell-based
compound,measurement,setting,value
C[C@@H](O)[C@H]1C(=O)N2C(C(=O)O)=C(SCCN=CN)C[C@H]12 [Imipenem],% R (resistance),"[1]; Asia/Pac, Eucast breakpoints",0%
same,MIC90,"[1]; Asia/Pac, N=63",1 µg/mL
same,% R (resistance),"[1]; Europe, Eucast breakpoints",1.4%
same,MIC90,"[1]; Europe, N=72",1 µg/mL
same,% R (resistance),"[1]; L. Amer, CLSI breakpoints",0%
same,MIC90,"[1]; L. Amer, N=42",0.5 µg/mL
same,% R (resistance),"[1]; N America, CLSI breakpoints",11.7%
same,MIC90,"[1]; N America, N=77",8 µg/mL
same,% R (resistance),"[2]; Asia/Pac, Eucast breakpoints",0%
same,MIC90,"[2]; Asia/Pac, N=282",≤ 0.12 µg/mL
same,% R (resistance),"[2]; Europe, Eucast breakpoints",0%
same,MIC90,"[2]; Europe, N=1533",≤ 0.12 µg/mL
same,% R (resistance),"[2]; L. Amer, CLSI breakpoints",0%
same,MIC90,"[2]; L. Amer, N=389",≤ 0.12 µg/mL
same,% R (resistance),"[2]; N America, CLSI breakpoints",0%
same,MIC90,"[2]; N America, N=1172",≤ 0.12 µg/mL
same,% R (resistance),"[3]; Asia/Pac, Eucast breakpoints",0%
same,MIC90,"[3]; Asia/Pac, N=17",0.5 µg/mL
same,% R (resistance),"[3]; Europe, Eucast breakpoints",0%
same,MIC90,"[3]; Europe, N=158",0.25 µg/mL
same,% R (resistance),"[3]; L. Amer, CLSI breakpoints",4%
same,MIC90,"[3]; L. Amer, N=25",0.25 µg/mL
same,% R (resistance),"[3]; N America, CLSI breakpoints",0.6%
same,MIC90,"[3]; N America, N=177",0.25 µg/mL
same,% R (resistance),"[4]; Asia/Pac, Eucast breakpoints",72.4%
same,MIC90,"[4]; Asia/Pac, N=275",> 8 µg/mL
same,% R (resistance),"[4]; Europe, Eucast breakpoints",66.2%
same,MIC90,"[4]; Europe, N=145",> 8 µg/mL
same,% R (resistance),"[4]; L. Amer, CLSI breakpoints",75.6%
same,MIC90,"[4]; L. Amer, N=275",> 8 µg/mL
same,% R (resistance),"[4]; N America, CLSI breakpoints",53.2%
same,MIC90,"[4]; N America, N=154",> 8 µg/mL
same,% R (resistance),"[5]; Asia/Pac, Eucast breakpoints",0.5%
same,MIC90,"[5]; Asia/Pac, N=219",0.25 µg/mL
same,% R (resistance),"[5]; Europe, Eucast breakpoints",0%
same,MIC90,"[5]; Europe, N=274",0.25 µg/mL
same,% R (resistance),"[5]; L. Amer, CLSI breakpoints",0.6%
same,MIC90,"[5]; L. Amer, N=168",0.25 µg/mL
same,% R (resistance),"[5]; N America, CLSI breakpoints",0%
same,MIC90,"[5]; N America, N=134",0.25 µg/mL
same,% R (resistance),"[6]; Asia/Pac, Eucast breakpoints",10.5%
same,MIC90,"[6]; Asia/Pac, N=124",> 8 µg/mL
same,% R (resistance),"[6]; Europe, Eucast breakpoints",7.9%
same,MIC90,"[6]; Europe, N=151",2 µg/mL
same,% R (resistance),"[6]; L. Amer, CLSI breakpoints",18.7%
same,MIC90,"[6]; L. Amer, N=209",> 8 µg/mL
same,% R (resistance),"[6]; N America, CLSI breakpoints",26.9%
same,MIC90,"[6]; N America, N=108",> 8 µg/mL
same,% R (resistance),"[7]; Asia/Pac, Eucast breakpoints",0%
same,MIC90,"[7]; Asia/Pac, N=189",0.5 µg/mL
same,% R (resistance),"[7]; Europe, Eucast breakpoints",0%
same,MIC90,"[7]; Europe, N=361",0.25 µg/mL
same,% R (resistance),"[7]; L. Amer, CLSI breakpoints",0%
same,MIC90,"[7]; L. Amer, N=160",0.25 µg/mL
same,% R (resistance),"[7]; N America, CLSI breakpoints",0%
same,MIC90,"[7]; N America, N=671",0.25 µg/mL
same,MIC90,"[8]; Asia/Pac, N=100",1 (1)
same,% R (resistance),"[8]; Europe, Eucast breakpoints",0%
same,MIC90,"[8]; Europe, N=183",0.5 µg/mL
same,% R (resistance),"[8]; L. Amer, CLSI breakpoints",0%
same,MIC90,"[8]; L. Amer, N=57",0.5 µg/mL
same,% R (resistance),"[8]; N America, CLSI breakpoints",0%
same,MIC90,"[8]; N America, N=210",0.5 µg/mL
same,% R (resistance),"[9]; Asia/Pac, Eucast breakpoints",11.1%
same,% R (resistance),"[9]; Europe, Eucast breakpoints",30.2%
same,MIC90,"[9]; Europe, N=43",> 8 µg/mL
same,% R (resistance),"[9]; L. Amer, CLSI breakpoints",44.4%
same,% R (resistance),"[9]; N America, CLSI breakpoints",4.8%
same,MIC90,"[9]; N America, N=42",8 µg/mL
same,% R (resistance),"[10]; Asia/Pac, Eucast breakpoints",0%
same,MIC90,"[10]; Asia/Pac, N=52",1 µg/mL
same,% R (resistance),"[10]; Europe, Eucast breakpoints",0%
same,MIC90,"[10]; Europe, N=82",1 µg/mL
same,% R (resistance),"[10]; L. Amer, CLSI breakpoints",0%
same,MIC90,"[10]; L. Amer, N=42",1 µg/mL
same,% R (resistance),"[10]; N America, CLSI breakpoints",1 (1) %
same,MIC90,"[10]; N America, N=101",1 (1)
NCC[C@H](O)C(=O)N[C@@H]1C[C@H](N)[C@@H](O[C@H]2O[C@H](CN)[C@@H](O)[C@H](O)[C@H]2O)[C@H](O)[C@H]1O[C@H]1O[C@H](CO)[C@@H](O)[C@H](N)[C@H]1O [Amikacin],% R (resistance),"[1]; Asia/Pac, Eucast breakpoints",9.5%
same,MIC90,"[1]; Asia/Pac, N=63",16 µg/mL
same,% R (resistance),"[1]; Europe, Eucast breakpoints",1.4%
same,MIC90,"[1]; Europe, N=72",8 µg/mL
same,% R (resistance),"[1]; L. Amer, CLSI breakpoints",7.1%
same,MIC90,"[1]; L. Amer, N=42",16 µg/mL
same,% R (resistance),"[1]; N America, CLSI breakpoints",0%
same,MIC90,"[1]; N America, N=77",4 µg/mL
same,% R (resistance),"[2]; Asia/Pac, Eucast breakpoints",0.4%
same,MIC90,"[2]; Asia/Pac, N=282",4 µg/mL
same,% R (resistance),"[2]; Europe, Eucast breakpoints",0.3%
same,MIC90,"[2]; Europe, N=1533",4 µg/mL
same,% R (resistance),"[2]; L. Amer, CLSI breakpoints",0%
same,MIC90,"[2]; L. Amer, N=389",4 µg/mL
same,% R (resistance),"[2]; N America, CLSI breakpoints",0%
same,MIC90,"[2]; N America, N=1172",4 µg/mL
same,% R (resistance),"[3]; Asia/Pac, Eucast breakpoints",0%
same,MIC90,"[3]; Asia/Pac, N=17",2 µg/mL
same,% R (resistance),"[3]; Europe, Eucast breakpoints",0%
same,MIC90,"[3]; Europe, N=158",2 µg/mL
same,% R (resistance),"[3]; L. Amer, CLSI breakpoints",8%
same,MIC90,"[3]; L. Amer, N=25",32 µg/mL
same,% R (resistance),"[3]; N America, CLSI breakpoints",0%
same,MIC90,"[3]; N America, N=177",2 µg/mL
same,% R (resistance),"[4]; Asia/Pac, Eucast breakpoints",74.9%
same,MIC90,"[4]; Asia/Pac, N=275",> 32 µg/mL
same,% R (resistance),"[4]; Europe, Eucast breakpoints",58.6%
same,MIC90,"[4]; Europe, N=145",> 32 µg/mL
same,% R (resistance),"[4]; L. Amer, CLSI breakpoints",57.5%
same,MIC90,"[4]; L. Amer, N=275",> 32 µg/mL
same,% R (resistance),"[4]; N America, CLSI breakpoints",42.9%
same,MIC90,"[4]; N America, N=154",> 32 µg/mL
same,% R (resistance),"[5]; Asia/Pac, Eucast breakpoints",8.2%
same,MIC90,"[5]; Asia/Pac, N=219",8 µg/mL
same,% R (resistance),"[5]; Europe, Eucast breakpoints",2.2%
same,MIC90,"[5]; Europe, N=274",8 µg/mL
same,% R (resistance),"[5]; L. Amer, CLSI breakpoints",1.2%
same,MIC90,"[5]; L. Amer, N=168",8 µg/mL
same,% R (resistance),"[5]; N America, CLSI breakpoints",0.7%
same,MIC90,"[5]; N America, N=134",8 µg/mL
same,% R (resistance),"[6]; Asia/Pac, Eucast breakpoints",23.4%
same,MIC90,"[6]; Asia/Pac, N=124",> 32 µg/mL
same,% R (resistance),"[6]; Europe, Eucast breakpoints",15.9%
same,MIC90,"[6]; Europe, N=151",32 µg/mL
same,% R (resistance),"[6]; L. Amer, CLSI breakpoints",14.8%
same,MIC90,"[6]; L. Amer, N=209",> 32 µg/mL
same,% R (resistance),"[6]; N America, CLSI breakpoints",2.8%
same,MIC90,"[6]; N America, N=108",32 µg/mL
same,% R (resistance),"[7]; Asia/Pac, Eucast breakpoints",0.5%
same,MIC90,"[7]; Asia/Pac, N=189",2 µg/mL
same,% R (resistance),"[7]; Europe, Eucast breakpoints",0.3%
same,MIC90,"[7]; Europe, N=361",2 µg/mL
same,% R (resistance),"[7]; L. Amer, CLSI breakpoints",0%
same,MIC90,"[7]; L. Amer, N=160",2 µg/mL
same,% R (resistance),"[7]; N America, CLSI breakpoints",0%
same,MIC90,"[7]; N America, N=671",2 µg/mL
same,% R (resistance),"[8]; Asia/Pac, Eucast breakpoints",1%
same,MIC90,"[8]; Asia/Pac, N=100",2 µg/mL
same,% R (resistance),"[8]; Europe, Eucast breakpoints",1.1%
same,MIC90,"[8]; Europe, N=183",2 µg/mL
same,% R (resistance),"[8]; L. Amer, CLSI breakpoints",0%
same,MIC90,"[8]; L. Amer, N=57",16 µg/mL
same,% R (resistance),"[8]; N America, CLSI breakpoints",0%
same,MIC90,"[8]; N America, N=210",2 µg/mL
same,% R (resistance),"[9]; Asia/Pac, Eucast breakpoints",22.2%
same,% R (resistance),"[9]; Europe, Eucast breakpoints",39.5%
same,MIC90,"[9]; Europe, N=43",> 32 µg/mL
same,% R (resistance),"[9]; L. Amer, CLSI breakpoints",22.2%
same,% R (resistance),"[9]; N America, CLSI breakpoints",9.5%
same,MIC90,"[9]; N America, N=42",8 µg/mL
same,% R (resistance),"[10]; Asia/Pac, Eucast breakpoints",3.8%
same,MIC90,"[10]; Asia/Pac, N=52",2 µg/mL
same,% R (resistance),"[10]; Europe, Eucast breakpoints",0%
same,MIC90,"[10]; Europe, N=82",4 µg/mL
same,% R (resistance),"[10]; L. Amer, CLSI breakpoints",0%
same,MIC90,"[10]; L. Amer, N=42",4 µg/mL
same,% R (resistance),"[10]; N America, CLSI breakpoints",1%
same,MIC90,"[10]; N America, N=101",2 µg/mL
